Test results as given in ChEMBL document CHEMBL1140860, “Synthesis and evaluation of dihydroartemisinin and dihydroartemisitene acetal dimers showing anticancer and antiprotozoal activity” (Bioorg Med Chem, 2009).

Assays:
Leishmania donovani = assay: Antileishmanial activity against Leishmania donovani promastigotes after 48 hrs by alamar-blue assay; type: functional, organism-based
[1] = Selectivity index, ratio of TC50 for african green monkey (Cercopithecus aethiops) Vero cells to IC50 for chloroquine-sensitive Plasmodium falciparum D6; type: toxicity, cell-based
[2] = Selectivity index, ratio of TC50 for african green monkey (Cercopithecus aethiops) Vero cells to IC50 for chloroquine-resistant Plasmodium falciparum W2; type: toxicity, cell-based
[3] = Cytotoxicity against african green monkey Vero cells after 48 hrs by neutral red assay; type: cell-based; settings: chlorocebus sabaeus, read-out: TC50

Row | SMILES | IC50 (Leishmania donovani) [µM] | IC90 (Leishmania donovani) [µM] | selectivity ratio [1] | selectivity ratio [2] | CC50 at 48 h [3] [µM]
1 | C[C@@H]1[C@H](O)[C@@H](C)/C=C/C=C/C=C/C=C/C=C/C=C/C=C/[C@H](O[C@@H]2O[C@H](C)[C@@H](O)[C@H](N)[C@@H]2O)C[C@@H]2O[C@](O)(C[C@@H](O)C[C@@H](O)[C@H](O)CC[C@@H](O)C[C@@H](O)CC(=O)O[C@H]1C)C[C@H](O)[C@H]2C(=O)O [AMPHOTERICIN B] | 0.1 | 0.2 |  |  | 
2 | N=C(N)c1ccc(OCCCCCOc2ccc(C(=N)N)cc2)cc1 [PENTAMIDINE] | 3.5 | 14.7 |  |  | 
3 | C[C@@H]1CC[C@H]2[C@@H](C)C(=O)O[C@@H]3O[C@@]4(C)CC[C@@H]1[C@]32OO4 [ARTEMISININ] |  |  | > 170 | > 106 | > 1690
